Laboratory results taken from patent US20230278983A1, “INDOLE DERIVATIVES AND USES THEREOF FOR TREATING A CANCER” (Universite Claude Bernard Lyon 1, priority 2020, published 2023).
Where two headings read alike, the source gives them in different places.

Biological target: CK2 (Homo sapiens (Human), UniProt P68400)
Assay: Radiometric CK2 kinase assay
Format: biochemical
Settings: for inhibition at 0.1 µM: compound at 0.10 μM; for inhibition at 1 µM: compound at 1 μM
[1] = inhibition of CK2 activity, ATP 10 μM

Chain of CK2 (P68400 whole entry): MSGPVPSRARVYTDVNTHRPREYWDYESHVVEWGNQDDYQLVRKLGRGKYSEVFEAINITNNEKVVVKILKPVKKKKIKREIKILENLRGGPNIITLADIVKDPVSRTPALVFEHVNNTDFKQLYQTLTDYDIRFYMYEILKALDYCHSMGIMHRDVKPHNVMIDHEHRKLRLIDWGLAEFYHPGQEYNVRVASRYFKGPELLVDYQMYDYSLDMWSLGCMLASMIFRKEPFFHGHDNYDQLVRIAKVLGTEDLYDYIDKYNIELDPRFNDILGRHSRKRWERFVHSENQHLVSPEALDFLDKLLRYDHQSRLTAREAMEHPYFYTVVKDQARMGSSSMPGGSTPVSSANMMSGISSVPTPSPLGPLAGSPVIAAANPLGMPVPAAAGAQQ

Compound: O=C(O)c1[nH]c2ccc(Cl)cc2c1-c1cn(CC2CCN(CCNS(=O)(=O)c3ccc(Cl)cc3)CC2)nn1 [AB201, 5-Chloro-3-(1-((1-(2-((4-chlorophenyl)sulfonamido)ethyl)piperidin-4-yl)methyl)-1H-1,2,3-triazol-4-yl)-1H-indole-2-carboxylic acid]
- IC50 [1]: 10100 nM

Compound: CC(=O)c1[nH]c2ccc(F)cc2c1-c1cn(C[C@H]2CCCN(CCNS(=O)(=O)c3ccc(CC(C)C)cc3)C2)nn1 [AB1403]
- inhibition at 0.1 µM (ATP 10 μM): 9%

Compound: COc1ccccc1-c1ccc(S(=O)(=O)NCCN2CCC(Cn3cc(-c4c(C(=O)OCC(C)C)[nH]c5ccc(F)cc45)nn3)CC2)cc1 [AB1205, isobutyl 5-fluoro-3-(1-((1-(2-((2′-methoxy-[1,1′-biphenyl])-4-sulfonamido)ethyl)piperidin-4-yl)methyl)-1H-1,2,3-triazol-4-yl)-1H-indole-2-carboxylate]
- inhibition at 0.05 µM (compound at 0.05 μM, ATP 10 μM): 59%

Compound: CCC(C)c1ccc(S(=O)(=O)NCCN2CCC(Cn3cc(-c4c(C(=O)OCC(C)C)[nH]c5ccc(F)cc45)nn3)CC2)cc1 (centres unmarked) [AB931, isobutyl 3-(1-((1-(2-((4-(sec-butyl)phenyl)sulfonamido)ethyl)piperidin-4-yl)methyl)-1H-1,2,3-triazol-4-yl)-5-fluoro-1H-indole-2-carboxylate]
- IC50 [1]: 100 nM

Compound: CC(C)COC(=O)c1[nH]c2ccc(F)cc2c1-c1cn(CC2CCN(Cc3ccc(Oc4ccc5c(c4)CCO5)c(C(C)C)c3)CC2)nn1 [AB717, Isobutyl 3-(1-((1-(4-((2,3-dihydrobenzofuran-5-yl)oxy)-3-isopropylbenzyl)piperidin-4-yl)methyl)-1H-1,2,3-triazol-4-yl)-5-fluoro-1H-indole-2-carboxylate]
- inhibition at 1 µM (ATP 10 μM): 2%

Compound: CCC(=O)c1[nH]c2ccc(F)cc2c1-c1cn(CC2CCN(CCNS(=O)(=O)Cc3ccc(C(F)(F)F)cc3)CC2)nn1 [AB1417, N-(2-(4-((4-(5-fluoro-2-propionyl-1H-indol-3-yl)-1H-1,2,3-triazol-1-yl)methyl)piperidin-1-yl)ethyl)-1-(4-(trifluoromethyl)phenyl)methanesulfonamide]
- IC50 [1]: 120 nM

Compound: COCc1ccccc1-c1ccc(C(=O)N2CCC(Cn3cc(-c4c(C(=O)OCC(C)C)[nH]c5ccc(F)cc45)nn3)CC2)cc1Cl [AB681, Isobutyl 3-(1-((1-(2-chloro-2′-(methoxymethyl)-[1,1′-biphenyl]-4-carbonyl)piperidin-4-yl)methyl)-1H-1,2,3-triazol-4-yl)-5-fluoro-1H-indole-2-carboxylate]
- inhibition at 1 µM (ATP 10 μM): 18%

Compound: COCc1ccccc1-c1ccc(S(=O)(=O)NCCN2CCC(Cn3cc(-c4c(C(=O)OCC(C)C)[nH]c5ccc(F)cc45)nn3)CC2)cc1 [AB1303]
- IC50: 33 nM

Compound: CC(C)COC(=O)c1[nH]c2ccc(F)cc2c1-c1cn(CC2CCN(Cc3ccc(OCC(C)C)c(Cl)c3)CC2)nn1 [AB760, Isobutyl 3-(1-((1-(3-chloro-4-isobutoxybenzyl)piperidin-4-yl)methyl)-1H-1,2,3-triazol-4-yl)-5-fluoro-1H-indole-2-carboxylate]
- inhibition at 1 µM (ATP 10 μM): 15%

Compound: CC(C)COC(=O)c1[nH]c2ccc(F)cc2c1-c1cn(CC2CCN(Cc3ccc(-c4ccc5[nH]ccc5c4)c(Cl)c3)CC2)nn1 [AB753, Isobutyl 3-(1-((1-(3-chloro-4-(1H-indol-5-yl)benzyl)piperidin-4-yl)methyl)-1H-1,2,3-triazol-4-yl)-5-fluoro-1H-indole-2-carboxylate]
- inhibition at 1 µM (ATP 10 μM): 18%

Compound: CC(C)COC(=O)c1[nH]c2ccc(F)cc2c1-c1cn(CC2CCN(CCNS(=O)(=O)c3ccc(OC(F)(F)F)cc3)CC2)nn1 [AB912, isobutyl 5-fluoro-3-(1-((1-(2-((4-(trifluoromethoxy)phenyl)sulfonamido)ethyl)piperidin-4-yl)methyl)-1H-1,2,3-triazol-4-yl)-1H-indole-2-carboxylate]
- IC50: 300 nM

Compound: CC(=O)c1[nH]c2ccc(F)cc2c1-c1cn(CC2CN(CCNS(=O)(=O)c3ccc(CC(C)C)cc3)C2)nn1 [AB1404, N-(2-(3-((4-(2-acetyl-5-fluoro-1H-indol-3-yl)-1H-1,2,3-triazol-1-yl)methyl)azetidin-1-yl)ethyl)-4-isobutylbenzenesulfonamide]
- inhibition at 0.1 µM (ATP 10 μM): 20%

Compound: CC(C)COC(=O)c1[nH]c2ccc(F)cc2c1-c1cn(CC2CCN(Cc3ccc(Oc4ccccc4)c(C(C)C)c3)CC2)nn1 [AB697, Isobutyl 5-fluoro-3-(1-((1-(3-isopropyl-4-phenoxybenzyl)piperidin-4-yl)methyl)-1H-1,2,3-triazol-4-yl)-1H-indole-2-carboxylate]
- inhibition at 1 µM (ATP 10 μM): 16%

Compound: Cc1noc(C)c1-c1ccc(S(=O)(=O)NCCN2CCC(Cn3cc(-c4c(C(=O)OCC(C)C)[nH]c5ccc(F)cc45)nn3)CC2)cc1 [AB1130, isobutyl 3-(1-((1-(2-((4-(3,5-dimethylisoxazol-4-yl)phenyl)sulfonamido)ethyl)piperidin-4-yl)methyl)-1H-1,2,3-triazol-4-yl)-5-fluoro-1H-indole-2-carboxylate]
- IC50: 49 nM

Compound: CC(C)COC(=O)c1[nH]c2ccc(F)cc2c1-c1cn(CC2CCN(CCNS(=O)(=O)c3ccc(-c4ccc(C#N)cc4)cc3)CC2)nn1 [AB1134, isobutyl 3-(1-((1-(2-((4′-cyano-[1,1′-biphenyl])-4-sulfonamido)ethyl)piperidin-4-yl)methyl)-1H-1,2,3-triazol-4-yl)-5-fluoro-1H-indole-2-carboxylate]
- inhibition at 0.1 µM (ATP 10 μM): 5%

Compound: CCOC(=O)c1[nH]c2ccc(F)cc2c1-c1cn(CC2CCN(CCNS(=O)(=O)c3ccc(C)cc3)CC2)nn1 [AB504, Ethyl 5-fluoro-3-(1-((1-(2-((4-methylphenyl)sulfonamido)ethyl)piperidin-4-yl)methyl)-1H-1,2,3-triazol-4-yl)-1H-indole-2-carboxylate]
- IC50: 1800 nM

Compound: CCOC(=O)c1[nH]c2ccc(F)cc2c1-c1cn(CC2CCN(CCNS(=O)(=O)c3ccc(Cl)cc3)CC2)nn1 [AB401, Ethyl 3-(1-((1-(2-((4-chlorophenyl)sulfonamido)ethyl)piperidin-4-yl)methyl)-1H-1,2,3-triazol-4-yl)-5-fluoro-1H-indole-2-carboxylate]
- IC50: 980 nM

Compound: CCOC(=O)c1[nH]c2ccc(Cl)cc2c1-c1cn(CC2CCN(CCNS(=O)(=O)c3ccc4ccccc4c3)CC2)nn1 [AB551, Ethyl 5-chloro-3-(1-((1-(2-(naphthalene-2-sulfonamido)ethyl)piperidin-4-yl)methyl)-111-1,2,3-triazol-4-yl)-1H-indole-2-carboxylate]
- IC50: 1780 nM

Compound: CC(C)COC(=O)c1[nH]c2ccc(F)cc2c1-c1cn(CC2CCN(CCNS(=O)(=O)Cc3cccc(Br)c3)CC2)nn1 [AB1031, isobutyl 3-(1-((1-(2-(((3-bromophenyl)methyl)sulfonamido)ethyl)piperidin-4-yl)methyl)-1H-1,2,3-triazol-4-yl)-5-fluoro-1H-indole-2-carboxylate]
- IC50 [1]: 150 nM

Compound: CCCCC(=O)c1[nH]c2ccc(F)cc2c1-c1cn(CC2CCN(CCNS(=O)(=O)c3ccc(CC(C)C)cc3)CC2)nn1 [AB1145, N-(2-(4-((4-(5-fluoro-2-pentanoyl-1H-indol-3-yl)-1H-1,2,3-triazol-1-yl)methyl)piperidin-1-yl)ethyl)-4-isobutylbenzenesulfonamide]
- IC50: 130 nM
